Data: patent US20100298377A1, “NOVEL SUBSTITUTED INDAZOLES, THE PREPARATION THEREOF AND USE OF SAME IN THERAPEUTICS” (SANOFI-AVENTIS, priority 2007, published 2010)
Like-named read-outs stand apart in the source and are kept apart here.

How the values were obtained:
[1] = molecular target: T1, Human S6K1 (24-421) T412E protein (Homo sapiens, UniProt P23443, T412E); test: Determination of the IC50 for S6K1 (HTRF substrate phosphorylation test); type: biochemical; details: S6K1 activated by PDK1, ATP 30 μM
T1 construct: Human S6K1 (24-421) T412E protein; made in house; host or cells: Sf21 insect cells
Protocol: Determination of the IC50 for S6K1
The inhibitory potential of the compounds for S6K1 is evaluated in an enzymatic test of phosphorylation of substrate in HTRF (Homogenous Time-Resolved Fluorescence) format. Human S6K1 (24-421) T412E protein is expressed in sf21 cells and purified by chromatography on a nickel chelate column. It is activated by PDK1.
The test comprises two steps, both performed at RT. The phosphorylation reaction takes place during the first step and the revelation step is performed during the second. […] The final concentrations of compounds thus obtained during the incubation period range from 10 μM to 0.17 nM and the concentration of enzyme is 2 nM. After incubation for 20 minutes, the reaction is stopped and the revelation initiated by addition of 30 μl of a mixture of streptavidin XL 665 Xlent, ref. 611SAXLB Cis bio international, and a europium cryptate-coupled anti-phospho-GSK3 antibody, ref. 64CUSKAZ Cis bio international, dissolved in the revelation buffer (HEPES/NaOH 166.7 mM, EDTA 221.7 mM, KF 667.7 mM, BSA 0.167%, pH 7.0). The reaction takes place in a black half-well plate ref. 3694 Costar.
A mixture of the reaction medium after each addition of reagent is obtained by agitation for a few minutes at 700-1000 rpm on a Heidolph Titramax 100 machine. The reading is taken on a TECAN Ultra Evolution machine after at least one night and up to 3 nights at 4° C. The reading settings are as follows: excitation wavelength 320 nm, emission wavelengths 620 and 665 nm, lag time 150 μs, integration time 500 μs.
For each point, the ΔF % is calculated as follows:
(§1) R(Ratio)=counts665 nm/counts620 nm
The IC50 values are calculated by means of the XLfit4 205 equation.

[2] = molecular target: AKT1 (Homo sapiens, UniProt P31749, S473D); test: Determination of the IC50 for AKT1 (HTRF); type: biochemical; details: AKT1 without PH domain, activated by PDK1
Protocol: Determination of the IC50 for AKT1
The inhibitory potential of the compounds is evaluated by HTRF, a time-resolved fluorescence technique based on non-radiative energy transfer (FRET). […] This phosphorylation allows the kinase activity of AKT1 to be activated.
Starting with a 10 mM solution of inhibitors, 3 μl are taken and placed in a 96-well polypropylene plate containing 27 μl of 100% DMSO. The various test compounds are diluted in cascade by taking 15 μl of compound, to which are added 30 μl of 100% DMSO.
The various reaction components are added in the following manner:
Next, 10 μl of the inhibitor solution are added. Finally, the reaction is initiated by adding 10 μl of a solution containing both 100 μM of ATP and 10 μM of biotinylated peptide. The sequence of this peptide is as follows: biot-[…] (reference Neosystem SP000560). The plate is then covered with a plastic film, agitated and finally incubated at RT for 30 minutes. […] After incubation overnight at 4° C., the plate is read using an Ultra evolution spectrophotometer from Tecan. […] All the tests are performed in duplicate and the mean of the two tests is calculated.
For each point, a delta F is calculated in the following manner:
as §1
ΔF % is calculated by the Tecan Ultra Evolution machine.

[3] = test system: MIA PaCa-2 cells (human pancreatic carcinoma cells); test: Proliferation of MIA PaCa-2 cells, intracellular ATP, CellTiter-Glo test; type: cell-based; details: 96 hours
From the text: (§2) b. Study of the Proliferation of Human Tumoral MIA PaCa-2, C-433, LnCaP and MCF7 Cells via Assay of the Intracellular ATP Using the Celltiter-Glo™ Test
(§3) The kit CellTiter-Glo™ for measuring cell viability via luminescence ([…]) is a homogeneous method for determining the number of viable cells in culture, based on quantification of the ATP present in the cells, and which indicates the presence of metabolically active cells.
(§4) The cell lines used in this test were the following: MIA PaCa-2 cells (human pancreatic carcinoma cells, ATCC, CRL-1420), C-433 cells (human Ewing sarcoma cells, DSMZ, ACC 268), LNCaP clone FGC cells (human prostate carcinoma cells, ATCC, CRL-1740), MCF7 cells (human breast carcinoma cells, ECACC, #86012803). The cells MIAPaCa-2 and LNCaP were cultured in D-MEM culture medium (Invitrogen Gibco, #419656-039) containing 10% foetal calf serum (FCS, Invitrogen Gibco, #10500-064) and 2 mM L-Glutamine (Invitrogen Gibco, #25030-024); the C-433 cells were cultured in MCCoy's 5A culture medium (Invitrogen Gibco, #26600-023)/RPMI 1640 (Invitrogen Gibco, #31870-025) (50/50) containing 10% FCS and 2 mM L-glutamine; the MCF7 cells were cultured in EMEM culture medium (EMEM, Biowhittaker, Lonza, #BE12-662F) containing 10% FCS and 2 mM L-Glutamine.
(§5) Evaluation of the Cell Viability via Luminescence Measurement: Celltiter-Glo™ Test
(§6) On day 1, the cells were inoculated at 1000 (C-433), 2500 (MCF7) and 10000 (LNCaP and MIA PaCa-2) cells per well in black-bottomed 96-well microplates (NUNC fluoronunc, Fisherbioblock 2311K) in 135 μl of whole culture medium and incubated at 37° C., 5% CO2, for 3 to 6 hours. The cells were then incubated with increasing concentrations of molecules diluted in dimethyl sulfoxide (DMSO, Sigma D2650). The molecules were added in a volume of 15 μl of a 10-fold concentrated solution in a final volume of 150 μl, the final percentage of DMSO being 0.1%. The cells were incubated at 37° C., 5% CO2, for 96 hours. After 4 days of treatment with the molecules, the CellTiter-Glo™ was performed by following the manufacturer's instructions (Kit Celltiter-Glo Luminescent, PROMEGA #G7571). Briefly, the cell plates were equilibrated for about 30 minutes at RT and 100 μl per well of Celltiter-Glo reagent were added. The cells were incubated for 1 hour at RT for lysis of the cells and stabilization of the signal. The intracellular ATP was quantified by measuring the luminescence in rlu units (relative luminescence units), 96 hours after initiation of the treatment, using a luminescence counter (Wallac). The tests were performed in six replicates.
(§7) i) the mean±s.e.m. of each series of well replicates was calculated;
(§8) ii) the maximum response is given by positive control wells containing untreated cells; this control was performed in 12 replicates;
(§9) iii) the minimum response is given by cell-free and untreated negative control wells; this control was performed in 6 replicates;
(§10) iv) using these maximum (100%) and minimum (0%) response values, respectively, the data were normalized to give a percentage relative to the maximum response;
(§11) The IC50 values were calculated by […] with the XLfit software (IDBS, UK) using formula 205.

[4] = test system: LNCaP clone FGC cells (human prostate carcinoma cells); test: Proliferation of LNCaP cells, intracellular ATP, CellTiter-Glo test; type: cell-based; details: 96 hours
From the text: as §2, §3, §4, §5, §6, §7, §8, §9, §10, §11

[5] = test system: MEF-IGF1 murine fibroblast cells; test: IGF1-dependent proliferation of MEF-IGF1 cells via incorporation of [14C]-thymidine; type: cell-based; details: [14C]-thymidine incorporation, IGF1 stimulated, 72 hours, read-out: IC50 MEF-IGF
From the text: a. Study of the IGF1-Dependent Proliferation of MEF-IGF1 Murine Fibroblast Cells Measured via Incorporation of [14C]-Thymidine
This test is based on the incorporation of [^14C]-thymidine into the DNA of the cells for the S phase of the cell cycle during cell division. The cell line used in this test is the MEF/3T3 Tet-Off Clone 18 line obtained by stable transfection of the human receptor IGF1R in murine MEF/3T3 Tet-Off fibroblasts. To measure the IGF1-dependent cell proliferation, the cells were deprived of serum and cultured for 3 days in the serum-free culture medium in the presence of the growth factor IGF1 which stimulates the proliferation of MEF-IGF1 cells.
Test of Incorporation of [^14C]-Thymidine into MEF-IGF1 Cells
On day 1, the cells were inoculated with 7500 cells per well in Cytostar 96-well microplates (Amersham (GE) RPNQ0162) in 200 μl of EMEM medium (EMEM, Biowhittaker, #BE12-662F) containing 10% foetal calf serum (FCS, TET-BD Biosciences Tet System Approved FBS US-Sourced, #8630-1) and 1% PSG (Penicillin-Streptomycin-Glutamine (PSG), Gibco #10378-016), and incubated at 37° C., 5% CO2, for 24 hours. On day 2, the cells were washed in the FCS-free EMEM culture medium containing 1% PSG, and incubated in 170 μl of this serum-free culture medium at 37° C., 5% CO2, for 24 hours. On day 3, the cells were incubated with 10 μl of IGF1 (2 μg/ml of final concentration; recombinant human IGF-1, R & D Systems, #291-G1), 10 μl (0.1 μCi) of [^14C]-Thymidine (NEN NEC-568) plus 10 μl of increasing concentrations of the test molecules, diluted in dimethyl sulfoxide (DMSO, Sigma D2650). The molecules were added in a volume of 10 μl of a 20-fold concentrated solution in a final volume of 200 μl, the final percentage of DMSO being 0.1%. The treated cells were incubated at 37° C., 5% CO2, for 72 hours. The incorporation of [^14C]-Thymidine was quantified in cpm units (counts per minute) by counting the radioactivity 72 hours after the start of the treatment, using a Micro-Beta radioactivity counter (Perkin-Elmer). The tests were performed in duplicate.
as §7
ii) the background noise is calculated by preparing cell-free, IGF1-free and untreated control wells; this control was performed in 4 replicates. The background noise was removed at each measurement;
iii) the maximum response is given by positive control wells containing cells in the presence of IGF1 but untreated; this control was performed in 4 replicates;
iv) the minimum response is given by negative control wells containing IGF1-free and untreated cells; this control was performed in 4 replicates;
as §11

[6] = test system: C-433 cells (human Ewing sarcoma cells); test: Proliferation of C-433 cells, intracellular ATP, CellTiter-Glo test; type: cell-based; details: 96 hours
From the text: as §2, §3, §4, §5, §6, §7, §8, §9, §10, §11

[7] = test system: MCF7 cells (human breast carcinoma cells); test: Proliferation of MCF7 cells, intracellular ATP, CellTiter-Glo test; type: cell-based; details: 96 hours
From the text: as §2, §3, §4, §5, §6, §7, §8, §9, §10, §11

AKT1, sequence (P31749 118-480 S473D limits assumed): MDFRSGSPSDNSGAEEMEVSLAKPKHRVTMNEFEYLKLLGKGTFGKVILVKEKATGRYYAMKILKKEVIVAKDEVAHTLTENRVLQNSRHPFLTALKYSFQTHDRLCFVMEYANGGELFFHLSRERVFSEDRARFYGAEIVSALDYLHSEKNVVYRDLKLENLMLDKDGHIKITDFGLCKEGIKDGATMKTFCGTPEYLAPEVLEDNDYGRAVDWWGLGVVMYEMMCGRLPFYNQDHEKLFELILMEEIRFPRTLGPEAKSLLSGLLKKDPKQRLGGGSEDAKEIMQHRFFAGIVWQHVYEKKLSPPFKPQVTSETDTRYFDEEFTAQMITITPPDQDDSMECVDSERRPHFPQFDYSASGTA
T1 sequence (P23443 24-421 T412E): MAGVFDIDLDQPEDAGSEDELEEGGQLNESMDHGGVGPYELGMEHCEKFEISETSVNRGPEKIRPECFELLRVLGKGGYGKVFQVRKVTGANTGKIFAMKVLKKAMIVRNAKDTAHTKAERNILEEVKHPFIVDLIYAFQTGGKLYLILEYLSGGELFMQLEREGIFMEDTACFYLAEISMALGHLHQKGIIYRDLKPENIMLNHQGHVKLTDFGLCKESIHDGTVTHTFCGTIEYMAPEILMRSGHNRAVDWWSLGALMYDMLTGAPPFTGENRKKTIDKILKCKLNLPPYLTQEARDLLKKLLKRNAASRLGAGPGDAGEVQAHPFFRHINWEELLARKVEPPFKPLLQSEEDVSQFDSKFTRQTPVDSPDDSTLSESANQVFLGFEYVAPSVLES

Molecule | IC50 [2] [nM] | IC50 [3] [nM] | other results
O=C(Nc1ccc2[nH]ncc2c1)N[C@H](c1ccc(Cl)c(Cl)c1)[C@H]1CCCCN1 [Ex 6, 1-{(R)-(3,4-Dichlorophenyl)[(2R)-piperid-2-yl]methyl}-3-(1H-indazol-5-yl)urea] | < 100 | 2900 | IC50 [1]: 100 to 500 nM
O=C(Nc1ccc2[nH]ncc2c1)N[C@@H](c1cc(Cl)cc(Cl)c1)[C@@H]1CCCCN1 [Ex 7, 1-{(S)-(3,5-Dichlorophenyl)[(2S)-piperid-2-yl]methyl}-3-(1H-indazol-5-yl)urea] | < 100 | 9320 | IC50 ([4]; Homo sapiens, LNCaP-Clone-FGC): 5000 nM; IC50 ([5]; Mus musculus, Fibroblast): 280 nM
CN1CCCCC1C(NC(=O)Nc1ccc2[nH]nc(-c3ccccn3)c2c1)c1ccccc1 [Ex 15, 1-[(1-Methylpiperid-2-yl)(phenyl)methyl]-3-(3-pyrid-2-yl-1H-indazol-5-yl)urea((S,2S),(R,2R))] | 100 to 500 | 2800 | 
O=C(Nc1ccc2[nH]nc(-c3ccncc3)c2c1)N[C@@H](c1ccc(Cl)c(Cl)c1)[C@@H]1CCCCN1 [Ex 16, 1-{(S)-(3,4-Dichlorophenyl)[(2S)-piperid-2-yl]methyl}-3-(3-pyrid-4-yl-1H-indazol-5-yl)urea] | 100 to 500 | 7790 | 
CN1CCCCC1C(NC(=O)Nc1ccc2[nH]nc(-c3nc4ccccc4[nH]3)c2c1)c1ccccc1 [Ex 17, 1-[3-(1H-Benzimidazol-2-yl)-1H-indazol-5-yl]-3-[(1-methylpiperid-2-yl)(phenyl)methyl]urea((S,2S),(R,2R))] | < 100 |  | IC50 ([4]; Homo sapiens, LNCaP-Clone-FGC): 670 nM; IC50 ([5]; Mus musculus, Fibroblast): 2230 nM
(6-Fluoro-1H-indazol-5-yl)-(S)-(3-chloro-5-fluorophenyl)-(S)-piperid-2-ylmethyl carbamate [Ex 50] | < 100 |  | IC50 [5]: 3160 nM
(7-Fluoro-1H-indazol-5-yl)-(S)-(3,4-dichlorophenyl)-(S)-piperid-2-ylmethyl carbamate [Ex 48] | < 100 |  | IC50 [4]: 1350 nM; IC50 [5]: 295 nM; IC50 [6]: 505 nM; IC50 [7]: 1500 nM

More lines, main results first:

IC50 [2] [nM] | IC50 [3] [nM] | Molecule | other results
100 to 500 | 10000 | CN1CCCCC1C(NC(=O)Nc1cc(F)c2[nH]nc(N)c2c1)c1ccccc1 [Ex 20, 1-(3-Amino-7-fluoro-1H-indazol-5-yl)-3-[(1-methylpiperid-2-yl)(phenyl)methyl]urea((S,2S),(R,2R))] | 
< 100 | 930 | CN1CCCCC1C(NC(=O)Nc1ccc2[nH]nc(C#Cc3ccccc3)c2c1)c1ccccc1 [Ex 23, 1-[(1-Methylpiperid-2-yl)(phenyl)methyl]-3-[3-(phenylethynyl)-1H-indazol-5-yl]urea((S,2S),(R,2R))] | IC50 [1]: 500 to 2000 nM
100 to 500 | 1500 to 7000 | CN1CCCCC1C(NC(=O)Nc1ccc2[nH]nc(CCc3ccccc3)c2c1)c1ccccc1 [Ex 27, 1-[(1-Methylpiperid-2-yl)(phenyl)methyl]-3-[3-(2-phenylethyl)-1H-indazol-5-yl]urea((S,2S),(R,2R))] | 
